Data taken from ChEMBL document CHEMBL1649260, “Case of fatal Blastoschizomyces capitatus infection occurring in a patient receiving empiric micafungin therapy” (2009).
≈ marks a conversion by molar mass, not a printed value. Numbered stars: 1 amine (or outer) side, 2 acyl side, 3 side chain; on linkers, the order of the positions; unused ones are H or OH. Bridge positions count the residues as written; N and C are the ends. Square brackets hold non-standard residues; d marks the D form. Peptide text beside a SMILES is read from it. * marks the point of attachment. hTyr(3S-OH,4S-OH,3'-OSO3H) = N[C@H](C(=O)O)[C@H](O)[C@@H](O)c1ccc(O)c(OS(=O)(=O)O)c1; pTerphenylCO(4''-OnC5H11) = CCCCCOc1ccc(-c2ccc(-c3ccc(C(=O)*)cc3)cc2)cc1; Orn(4R-OH,5R-OH) = O=C([C@H](C[C@@H](O)[C@@H](O)N[*:3])N[*:1])[*:2]; hTyr(3S-OH,4S-OH) = N[C@H](C(=O)O)[C@H](O)[C@@H](O)c1ccc(O)cc1; Pro(3S-OH,4S-Me) = C[C@H]1CN[C@H](C(=O)O)[C@H]1O; X1 = CCCCCOc1ccc(-c2cc(-c3ccc(C(=O)*)cc3)no2)cc1; Gln(3R-OH) = NC(=O)C[C@@H](O)[C@H](N)C(=O)O; Hyp = O=C(O)[C@@H]1C[C@@H](O)CN1

Tested on: Magnusiomyces capitatus
Assay: Antimicrobial activity against Blastoschizomyces capitatus by microdilution method
Format: functional

Row | Compound | MIC [µg/mL]
1 | CCCCCOc1ccc(-c2ccc(-c3ccc(C(=O)N[C@H]4C[C@@H](O)[C@@H](O)NC(=O)[C@@H]5[C@@H](O)[C@@H](C)CN5C(=O)[C@H]([C@@H](C)O)NC(=O)[C@H]([C@H](O)[C@@H](O)c5ccc(O)cc5)NC(=O)[C@@H]5C[C@@H](O)CN5C(=O)[C@H]([C@@H](C)O)NC4=O)cc3)cc2)cc1 [ANIDULAFUNGIN] ({pTerphenylCO(4''-OnC5H11)}-[Orn(4R-OH,5R-OH)]T[Hyp][hTyr(3S-OH,4S-OH)]T[Pro(3S-OH,4S-Me)]; lactam 1-C) | 0.5 (≈ 0.438 µM)
2 | CC[C@@H]([C@H](C)O)n1ncn(-c2ccc(N3CCN(c4ccc(OC[C@@H]5CO[C@@](Cn6cncn6)(c6ccc(F)cc6F)C5)cc4)CC3)cc2)c1=O [POSACONAZOLE] | 0.12 (≈ 0.171 µM)
3 | Nc1nc(=O)[nH]cc1F [FLUCYTOSINE] | ≤ 0.06
4 | CCCCCOc1ccc(-c2cc(-c3ccc(C(=O)N[C@H]4C[C@@H](O)[C@@H](O)NC(=O)[C@@H]5[C@@H](O)[C@@H](C)CN5C(=O)[C@H]([C@H](O)CC(N)=O)NC(=O)[C@H]([C@H](O)[C@@H](O)c5ccc(O)c(OS(=O)(=O)O)c5)NC(=O)[C@@H]5C[C@@H](O)CN5C(=O)[C@H]([C@@H](C)O)NC4=O)cc3)no2)cc1 [MICAFUNGIN] (X1-[Orn(4R-OH,5R-OH)]T[Hyp][hTyr(3S-OH,4S-OH,3'-OSO3H)][Gln(3R-OH)][Pro(3S-OH,4S-Me)]; lactam 1-C) | 0.5 (≈ 0.394 µM)
5 | C[C@@H]1[C@H](O)[C@@H](C)/C=C/C=C/C=C/C=C/C=C/C=C/C=C/[C@H](O[C@@H]2O[C@H](C)[C@@H](O)[C@H](N)[C@@H]2O)C[C@@H]2O[C@](O)(C[C@@H](O)C[C@@H](O)[C@H](O)CC[C@@H](O)C[C@@H](O)CC(=O)O[C@H]1C)C[C@H](O)[C@H]2C(=O)O [AMPHOTERICIN B] | 0.5 (≈ 0.541 µM)
6 | CCC(C)n1ncn(-c2ccc(N3CCN(c4ccc(OCC5COC(Cn6cncn6)(c6ccc(Cl)cc6Cl)O5)cc4)CC3)cc2)c1=O (centres undefined) [ITRACONAZOLE] | 0.06 (≈ 0.085 µM)
7 | OC(Cn1cncn1)(Cn1cncn1)c1ccc(F)cc1F [FLUCONAZOLE] | 4 (≈ 13.1 µM)
8 | C[C@@H](c1ncncc1F)[C@](O)(Cn1cncn1)c1ccc(F)cc1F [VORICONAZOLE] | 0.06 (≈ 0.172 µM)
9 | CC[C@H](C)C[C@H](C)CCCCCCCCC(=O)N[C@H]1C[C@@H](O)[C@@H](NCCN)NC(=O)[C@@H]2[C@@H](O)CCN2C(=O)[C@H]([C@H](O)CCN)NC(=O)[C@H]([C@H](O)[C@@H](O)c2ccc(O)cc2)NC(=O)[C@@H]2C[C@@H](O)CN2C(=O)[C@H]([C@@H](C)O)NC1=O [CASPOFUNGIN] | 8 (≈ 7.32 µM)
